This is an account of results in patent US20070244071A1, “Treatment of proliferative diseases” (MOUNT SINAI HOSPITAL, priority 2006, published 2007).

In one assay the test system is MvLu cells. Description: Steady-state nuclear Smad2-p and Erk-p, MvLu cells. The class given is cell-based. To be noted: MvLu cells in culture, 1% FBS.
Assay [1] concerns non-transformed MvLu epithelial cells. Description: Cytotoxicity / cell growth assay, MvLu cells. The conditions noted are these: increasing concentrations, DMEM 1% FBS, AlamarBlue, 72 h (source says 48 h). It is filed as cell-based. How it is done:
In brief, 1000 cells/well were seeded in 96 well plates and cultured for 24 h prior to the addition of DAM-1976. Viable cells were measured at 48 or 72 h by adding of either XTT or AlamarBlue with further incubation at 37° C. For the XTT assay, absorbance was measured at 500 nm, 4 h after addition of XTT. Fluorescence with excitation at 544 nm and emission at 590 nm were measured 24 h after addition of AlamarBlue.

For assay [2], the system named is TGF-β induced Smad2/3 nuclear translocation. Description: TGF-β-dependent Smad2/3 nuclear translocation assay in NMuMG cells. The class given is cell-based, Murine. How it is done:
NMuMG epithelial cells were plated in 96 well Coming tissue plates (Coming) at a density of 5000 cells/well in 100 μl of DMEM, 10% FBS, 10 μg/ml insulin (Gibco) for 24 h. The medium was replaced with 100 μl of DMEM, 10 μg/ml insulin, 0.2 mg/ml BSA (fraction V) for 18 h. Test compounds at 10 μM were added and cells were incubated for 60 min at 37° C. TGF-β1 (R&D System, Minneapolis, Minn.) was added at 50 pM and incubated for a further 50 min. Cells were then fixed with 4% paraformaldehyde in PBS for 15 min and washed 3 times in PBS. Cells were permeabilized with 100% methanol for 2 min, then washed 3 times with PBS, followed by the addition of 150 μl PBS, 10% FBS. Plates were stored overnight at 4° C. Anti-Smad2/3 or anti-phospho-Smad2 antibodies (Transduction Laboratories, San Jose, Calif.) diluted 1:1000 in PBS plus 10% FBS were added at 50 μl/well and the plates were incubated for 1 h at 20° C. […] The wells were washed 3 times with PBS and imaged and quantified on the Array Scan (Cellomics Inc., Pittsburgh, Pa.) using the cytoplasmic-nuclear translocation program. To measure Erk phosphorylation (Erk-p) and nuclear translocation, mouse anti-phospho-Erkl/2 (Thr202/Tyr204) (Sigma, St. Louis, Mo.) was added at 1/1000 in PBS plus 10% FBS for 1 h at 20° C. The nuclear-cytoplasmic difference was determined for 100 cells per well, generating a mean±SE for each condition.

Assay [3] concerns Mgat5^+/+(2.6) mammary carcinoma cells. Description: Nuclear Smad2/3 and Erk-p (TGF-β / EGF sensitivity) in Mgat5^+/+(2.6) cells. It is filed as cell-based, mice. The conditions noted are these: Mgat5^+/+(2.6) cells in culture, 1% FBS, steady state.
The subject of a further assay is DR26 cells. Description: Steady-state nuclear Smad2-p and Erk-p, DR26 cells. It is filed as cell-based. To be noted: DR26 cells in culture, 1% FBS.

Take “TGF-β: transforming growth factor-beta cytokine; TGF-β1 (R&D System) used as stimulus and growth comparator”: the “basal nuclear Erk-p” value is “a decline or no change” in the assay with MvLu cells, “enhanced” in assay [3] and “a decline or no change” in the assay on DR26 cells. The “basal nuclear Smad2-p” value in the assay on MvLu cells is given as “increased slightly”; in assay [3], “not altered”; with DR26 cells, “not altered”. Further, the “cell growth (cell number)” value in assay [1] is “inhibited”. Further, the “increase in nuclear Smad2/3 protein” value in assay [2] (20 min after addition of cytokine, sustained until 50 min) is on record as 10 fold. Moreover, the “saturation of Smad2/3 nuclear translocation” value in assay [2] (dose of 50 pM) was approximately 80%.
